Assay [1] deals with Human immunodeficiency virus 1. As to the kind of experiment: Binding affinity to HIV1 His-tagged N-terminal heptad repeat of envelope glycoprotein gp41 assessed as recovery of N36-drug complex at 6 uM after 2 hrs by LC-MS analysis.
The test system of assay [2] is Human immunodeficiency virus 1. Description: Antiviral activity against HIV1 NL4-3 harboring gp41 D36G mutant infected in human HeLa cells expressing CD4-LTR-beta-gal assessed as inhibition of viral replication after 48 hrs by MAGI assay. In kind it is functional, organism-based.
In assay [3] the test system is Human immunodeficiency virus 1. As to the kind of experiment: Thermal stability of HIV1 envelope glycoprotein gp41 His-tagged N-terminal heptad repeat N36-drug complex assessed as thermal unfolding transition state by measuring molar ellipticity at 4 to 90 degC by circular dichroic spectra analysis.
The subject of assay [4] is Human immunodeficiency virus 1. As to the kind of experiment: Binding affinity to HIV1 His-tagged N-terminal heptad repeat of envelope glycoprotein gp41 assessed as recovery of N36-drug complex at 10 uM after 2 hrs by LC-MS analysis.
Assay [5] has as its system Human immunodeficiency virus 1. Description: Binding affinity to HIV1 His-tagged N-terminal heptad repeat of envelope glycoprotein gp41 assessed as recovery of N36-drug complex at 0.6 uM after 2 hrs by LC-MS analysis.
Assay [6] concerns Human immunodeficiency virus 1. As to the kind of experiment: Binding affinity to HIV1 His-tagged N-terminal heptad repeat of envelope glycoprotein gp41 assessed as recovery of N36-drug complex at 1 uM after 2 hrs by LC-MS analysis.
In assay [7] the test system is Human immunodeficiency virus 1. As to the kind of experiment: Binding affinity to HIV1 His-tagged N-terminal heptad repeat of envelope glycoprotein gp41 assessed as recovery of N54-drug complex after 2 hrs by LC-MS analysis. Also noted: concentration or dose not given beside the values.
In assay [8] the test system is Envelope glycoprotein gp160 (Human immunodeficiency virus 1), Q72502 [V38A]. As to the kind of experiment: Binding affinity to HIV1 His-tagged N-terminal heptad repeat of envelope glycoprotein gp41 assessed as recovery of N54 V38A mutant-drug complex after 2 hrs by LC-MS analysis. Further details: concentration or dose not given beside the values.
Assay [9] relates to Human immunodeficiency virus 1. Description: Binding affinity to HIV1 His-tagged N-terminal heptad repeat of envelope glycoprotein gp41 assessed as recovery of N54 N43D mutant-drug complex after 2 hrs by LC-MS analysis. Also noted: concentration or dose not given beside the values.
Assay [10] concerns Human immunodeficiency virus 1. As to the kind of experiment: Thermal stability of HIV1 envelope glycoprotein gp41 His-tagged N-terminal heptad repeat N54 N43D mutant-drug complex assessed as thermal unfolding transition state by measuring molar ellipticity at 4 to 90 degC by circular dichroic spectra analysis.
Assay [11] deals with Human immunodeficiency virus 1. Description: Thermal stability of HIV1 envelope glycoprotein gp41 His-tagged N-terminal heptad repeat N54-drug complex assessed as thermal unfolding transition state by measuring molar ellipticity at 4 to 90 degC by circular dichroic spectra analysis.
Assay [12] has as its system Envelope glycoprotein gp160 (Human immunodeficiency virus 1), Q72502 [V38A]. As to the kind of experiment: Thermal stability of HIV1 envelope glycoprotein gp41 His-tagged N-terminal heptad repeat N54 V38A mutant-drug complex assessed as thermal unfolding transition state by measuring molar ellipticity at 4 to 90 degC by circular dichroic spectra analysis.

Residues, ends and D or L forms follow the SMILES beside them.

A word on the EC50: it is the midpoint of the concentration-response curve. Broadly, the Tm is the temperature at which the thermal transition is half complete. Turning to `CC[C@H](C)[C@H](NC(=O)[C@H](CCCCN)NC(=O)[C@H](CCCCN)NC(=O)[C@H](CC(=O)O)NC(=O)[C@H](Cc1c[nH]c2ccccc12)NC(=O)[C@H](CCC(=O)O)NC(=O)[C@H](CCC(=O)O)NC(=O)[C@H](Cc1c[nH]c2ccccc12)NC(C)=O)C(=O)N[C@@H](CCC(=O)O)C(=O)N[C@@H](CCC(=O)O)C(=O)N[C@@H](Cc1ccc(O)cc1)C(=O)N[C@H](C(=O)N[C@@H](CCCCN)C(=O)N[C@@H](CCCCN)C(=O)N[C@H](C(=O)N[C@@H](CCC(=O)O)C(=O)N[C@@H](CCC(=O)O)C(=O)N[C@@H](CC(C)C)C(=O)N[C@H](C(=O)N[C@@H](CCCCN)C(=O)N[C@@H](CCCCN)C(=O)N[C@H](C(=O)N[C@@H](CCC(=O)O)C(=O)N[C@@H](CCC(=O)O)C(=O)N[C@@H](CCC(N)=O)C(=O)N[C@@H](CCC(N)=O)C(=O)N[C@@H](CCCCN)C(=O)N[C@@H](CCCCN)C(=O)N[C@@H](CC(N)=O)C(=O)N[C@@H](CCC(=O)O)C(=O)N[C@@H](CCC(=O)O)C(=O)N[C@@H](CCC(=O)O)C(=O)N[C@@H](CC(C)C)C(=O)N[C@@H](CCCCN)C(=O)N[C@@H](CCCCN)C(N)=O)C(C)C)[C@@H](C)CC)[C@@H](C)CC)[C@@H](C)O` (Ac-WEEWDKKIEEYTKKIEELIKKVEEQQKKNEEELKK-NH2), the Activity was 6% in [1], 2.8% in [4], 7% in assay [5] and 12.1% in assay [6]. Moreover, the EC50 in assay [2] stood at 1.9 nM. In assay [3], the Tm is 79.9 °C.

Take `CC[C@H](C)[C@H](NC(=O)[C@H](CC(C)C)NC(=O)[C@H](CCC(=O)O)NC(=O)[C@H](CCC(=O)O)NC(=O)[C@@H](NC(=O)[C@H](CCCCN)NC(=O)[C@H](CCCCN)NC(=O)[C@@H](NC(=O)[C@H](Cc1ccc(O)cc1)NC(=O)[C@H](CCC(=O)O)NC(=O)[C@H](CCC(=O)O)NC(=O)[C@@H](NC(=O)[C@H](CCCCN)NC(=O)[C@H](CCCCN)NC(=O)[C@H](CC(=O)O)NC(=O)[C@H](Cc1c[nH]c2ccccc12)NC(=O)[C@H](CCC(=O)O)NC(=O)[C@H](CCC(=O)O)NC(=O)[C@H](Cc1c[nH]c2ccccc12)NC(C)=O)[C@@H](C)CC)[C@@H](C)O)[C@@H](C)CC)C(=O)N[C@@H](CCCCN)C(=O)N[C@@H](CCCCN)C(=O)N[C@@H](Cc1ccc(O)cc1)C(=O)N[C@@H](CCC(=O)O)C(=O)N[C@@H](CCC(=O)O)C(=O)N[C@@H](CCC(N)=O)C(=O)N[C@@H](CCC(N)=O)C(=O)N[C@@H](CCCCN)C(=O)N[C@@H](CCCCN)C(=O)N[C@@H](CC(N)=O)C(=O)N[C@@H](CCC(=O)O)C(=O)N[C@@H](CCC(=O)O)C(=O)N[C@@H](CCC(=O)O)C(=O)N[C@@H](CC(C)C)C(=O)N[C@@H](CCCCN)C(=O)N[C@@H](CCCCN)C(N)=O` (Ac-WEEWDKKIEEYTKKIEELIKKYEEQQKKNEEELKK-NH2): the Activity amounted to 0.4% in assay [1], 0.5% in assay [4], 5.9% in [5] and 2.3% in [6]. Moreover, the EC50 in assay [2] is 1.9 nM. For the same molecule, in assay [3], the Tm was determined as 68 °C.

As to `CC[C@H](C)[C@H](NC(=O)[C@H](CC(C)C)NC(=O)[C@H](CCC(=O)O)NC(=O)[C@H](CCC(=O)O)NC(=O)[C@@H](NC(=O)[C@H](CC(C)C)NC(=O)[C@H](CO)NC(=O)[C@@H](NC(=O)[C@H](Cc1ccc(O)cc1)NC(C)=O)[C@@H](C)O)[C@@H](C)CC)C(=O)N[C@@H](CCCCN)C(=O)N[C@@H](CCCCN)C(=O)N[C@@H](C)C(=O)N[C@@H](CCC(=O)O)C(=O)N[C@@H](CCC(=O)O)C(=O)N[C@@H](CCC(N)=O)C(=O)N[C@@H](CCC(N)=O)C(=O)N[C@@H](CCCCN)C(=O)N[C@@H](CCCCN)C(=O)N[C@@H](CC(N)=O)C(=O)N[C@@H](CCC(=O)O)C(=O)N[C@@H](CCC(=O)O)C(=O)N[C@@H](CCC(=O)O)C(=O)N[C@@H](CC(C)C)C(=O)N[C@@H](CCCCN)C(=O)N[C@@H](CCCCN)C(=O)N[C@@H](CC(C)C)C(=O)N[C@@H](CCC(=O)O)C(=O)N[C@@H](CCC(=O)O)C(=O)N[C@@H](Cc1c[nH]c2ccccc12)C(=O)N[C@@H](C)C(=O)N[C@@H](CCCCN)C(=O)N[C@@H](CCCCN)C(=O)N[C@@H](Cc1c[nH]c2ccccc12)C(=O)N[C@@H](CC(N)=O)C(=O)N[C@@H](Cc1c[nH]c2ccccc12)C(=O)N[C@@H](Cc1ccccc1)C(N)=O` (Ac-YTSLIEELIKKAEEQQKKNEEELKKLEEWAKKWNWF-NH2), the Activity in [7] came out at 10%; in assay [8] it was 10%; in assay [9] it was 10.2%. For the same molecule, the 50% effective concentration (EC50) in assay [2] was 0.3 nM. For the same molecule, the Tm amounted to 71.9 °C in assay [10], 80.1 °C in assay [11] and 64.6 °C in assay [12].

In the case of `CC[C@H](C)[C@H](NC(=O)[C@H](CC(C)C)NC(=O)[C@H](CCC(=O)O)NC(=O)[C@H](CCC(=O)O)NC(=O)[C@@H](NC(=O)[C@H](CC(C)C)NC(=O)[C@H](CO)NC(=O)[C@@H](NC(=O)[C@H](Cc1ccc(O)cc1)NC(C)=O)[C@@H](C)O)[C@@H](C)CC)C(=O)N[C@@H](CCCCN)C(=O)N[C@@H](CCCCN)C(=O)N[C@@H](CC(C)C)C(=O)N[C@@H](CCC(=O)O)C(=O)N[C@@H](CCC(=O)O)C(=O)N[C@@H](CCC(N)=O)C(=O)N[C@@H](CCC(N)=O)C(=O)N[C@@H](CCCCN)C(=O)N[C@@H](CCCCN)C(=O)N[C@@H](CC(N)=O)C(=O)N[C@@H](CCC(=O)O)C(=O)N[C@@H](CCC(=O)O)C(=O)N[C@@H](CCC(=O)O)C(=O)N[C@@H](CC(C)C)C(=O)N[C@@H](CCCCN)C(=O)N[C@@H](CCCCN)C(=O)N[C@@H](CC(C)C)C(=O)N[C@@H](CCC(=O)O)C(=O)N[C@@H](CCC(=O)O)C(=O)N[C@@H](Cc1c[nH]c2ccccc12)C(=O)N[C@@H](C)C(=O)N[C@@H](CCCCN)C(=O)N[C@@H](CCCCN)C(=O)N[C@@H](Cc1c[nH]c2ccccc12)C(=O)N[C@@H](CC(N)=O)C(=O)N[C@@H](Cc1c[nH]c2ccccc12)C(=O)N[C@@H](Cc1ccccc1)C(N)=O` (Ac-YTSLIEELIKKLEEQQKKNEEELKKLEEWAKKWNWF-NH2), the results for the Activity in [7], in [8] and in assay [9] were 10.4%, 10.1% and 10.8%, respectively. In addition, the EC50 in assay [2] stood at 0.4 nM. Moreover, the Tm in assay [10] was found to be 74 °C; in assay [11], 77.6 °C; in assay [12], 57.5 °C.

For `CC[C@H](C)[C@H](NC(=O)[C@H](CC(C)C)NC(=O)[C@H](CO)NC(=O)[C@@H](NC(=O)[C@H](Cc1ccc(O)cc1)NC(C)=O)[C@@H](C)O)C(=O)N[C@@H](CCC(=O)O)C(=O)N[C@@H](CCC(=O)O)C(=O)N[C@@H](CC(C)C)C(=O)N[C@H](C(=O)N[C@@H](CCCCN)C(=O)N[C@@H](CCCCN)C(=O)N1CCC[C@H]1C(=O)N[C@@H](CCC(=O)O)C(=O)N[C@@H](CCC(=O)O)C(=O)N[C@@H](CCC(N)=O)C(=O)N[C@@H](CCC(N)=O)C(=O)N[C@@H](CCCCN)C(=O)N[C@@H](CCCCN)C(=O)N[C@@H](CC(N)=O)C(=O)N[C@@H](CCC(=O)O)C(=O)N[C@@H](CCC(=O)O)C(=O)N[C@@H](CCC(=O)O)C(=O)N[C@@H](CC(C)C)C(=O)N[C@@H](CCCCN)C(=O)N[C@@H](CCCCN)C(=O)N[C@@H](CC(C)C)C(=O)N[C@@H](CCC(=O)O)C(=O)N[C@@H](CCC(=O)O)C(=O)N[C@@H](Cc1c[nH]c2ccccc12)C(=O)N[C@@H](C)C(=O)N[C@@H](CCCCN)C(=O)N[C@@H](CCCCN)C(=O)N[C@@H](Cc1c[nH]c2ccccc12)C(=O)N[C@@H](CC(N)=O)C(=O)N[C@@H](Cc1c[nH]c2ccccc12)C(=O)N[C@@H](Cc1ccccc1)C(N)=O)[C@@H](C)CC` (Ac-YTSLIEELIKKPEEQQKKNEEELKKLEEWAKKWNWF-NH2), the Activity in assay [7] came to 0.2%; in assay [8] it was 0%; in assay [9] it was 0.3%. In addition, in assay [2], the EC50 came to 44 nM. For the same molecule, the Tm was determined as 55 °C in assay [10], 55.5 °C in [11] and 49.7 °C in assay [12].
